Measurements published in patent publication US20050054629A1, “Compounds and methods of treating cell proliferative diseases” (priority 2002, published 2005).

Columns and labels:
NIH3T3 = test: Cytoskeleton analysis, actin staining (FITC-phalloidin); format: cell-based, mouse; conditions: for Cell architecture modification actin staining (R: ruffles; FC: focal complexes) NIH3T3: 24 h treatment; for concentration at which specific inhibition of membrane ruffles and increase in the number of stress fibers was observed: NIH3T3, actin staining
How it was run: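 Subconfluent cells on coverslips were exposed to compound at 1, 10, 17.5, 25 or 50 μM, or to vehicle, for 24 h. They were then formaldehyde-fixed, Triton-permeabilized and blocked. Actin was stained with 0.5 μg/ml FITC-phalloidin for 1 h and imaged by inverted fluorescence microscopy.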

cell architecture = test: Cell architecture modification, phase contrast; format: cell-based; parameters: key: −: no effect of the compound was observed; +: an effect of the compound was observed
Rac = test: Rac-dependant signaling pathway analysis (reporter system); format: cell-based; parameters: key: −: no effect of the compound was observed; +: an effect of the compound was observed
Experimental: The impact of the compounds on Ras and Rac signaling pathways was analysed with two reporter systems described by Imler (Nature 1988) and Lin (Science, 1995) respectively on one hand, and by a colony formation assay in the presence of constitutively activated Ras (RasV12) and Rac (RacV12) on the other hand. For this latter experiment, fifty percent confluent NIH3T3 cells in a 10 cm diameter petri dish were transfected with 0.5 μg pSV2-RasV12 or 0.5 μg pEXV RacV12 plasmids plus 100 ng of pSV2-neomycin plasmid using Lipofectamine-Plus reagent (Invitrogen) according to the manufacturer's instructions. Forty-eight hours later, cells were trypsinised, splitted to ⅓, and incubated in the presence of complete medium supplemented with 400 μg/ml geneticin (Invitrogen) and different doses of compound (1, 10, 17.5, 25 and 50 μM) until emerging resistant clones appear (2-3 weeks). The medium was renewed every 3 days. Colonies with a minimum of 50 cells were counted after staining with Fuschin 2%.

MDA-MB-231 cells [1] = test: Migration assay (Boyden chamber, non-coated filters); format: cell-based, human; conditions: for Migration: MDA-MB-231, Boyden chamber
How it was run: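 MDA-MB-231 cells were pretreated overnight with compound (1, 10, 17.5, 25 and 50 μM), then 10^5 cells placed in the upper chamber in serum-free medium with 0.1% BSA plus compound; lower chamber held 10% FBS plus compound as chemoattractant. After 6 hours at 37° C on non-coated filters, migrated underside cells were stained and counted by microscopy.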

MDA-MB-231 cells [2] = test: Matrigel invasion assay (Boyden chamber); format: cell-based, human; conditions: for Invasion: MDA-MB-231, Boyden chamber, matrigel
How it was run: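 MDA-MB-231 cells were pretreated overnight with compound (1, 10, 17.5, 25, 50 μM). 10^5 cells in serum-free 0.1% BSA medium with compound were placed on 8 μm membranes coated with Matrigel (125 μg/cm^2), with 10% FBS plus compound below. After 6 h at 37 °C, cells on the filter underside were Diff-Quick stained and counted.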

NIH3T3 mouse fibroblasts = test: Cytotoxicity assay (MTT), 6 days; format: cell-based; conditions: NIH3T3, 144 h, 6 days of treatment, read-out: Toxicity 6d (IC 50, μM) NIH3T3
How it was run: (§1)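 Cells seeded 24 h before treatment with 0, 1, 10, 17.5, 25 and 50 µM compound (1% DMSO), in triplicate. After 6 days, 0.5 mg/ml MTT for 3 h at 37 °C, formazan dissolved in DMSO, absorbance read at 550 nm. Surviving fraction and IC50 calculated.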

MCF-7 breast carcinoma = test: Cytotoxicity assay (MTT), 6 days; format: cell-based; conditions: Homo sapiens, MCF7, 144 h, 6 days of treatment, read-out: Toxicity 6d (IC 50, μM) MCF7
How it was run: as §1

[3] = system: MDA-MB-231 breast carcinoma; test: Cytotoxicity assay (MTT), 6 days; format: cell-based; conditions: Homo sapiens, MDA-MB-231, 144 h, 6 days of treatment, read-out: Toxicity 6d (IC 50, μM) MDA231
How it was run: as §1

MCF10-A = test: Cytotoxicity assay (MTT), 6 days; format: cell-based; conditions: Homo sapiens, MCF-10A, 144 h, 6 days of treatment, read-out: Toxicity 6d (IC 50, μM) MCF10-A
How it was run: as §1

H460 lung carcinoma = test: Cytotoxicity assay (MTT), 6 days; format: cell-based; conditions: Homo sapiens, NCI-H460, 144 h, 6 days of treatment, read-out: Toxicity 6d (IC 50, μM) H460
How it was run: as §1

Ras = test: Ras-dependant signaling pathway analysis (reporter system); format: cell-based; parameters: key: −: no effect of the compound was observed; +: an effect of the compound was observed
How it was run: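 Ras and Rac signalling were measured with reporter systems. For colony formation, NIH3T3 cells were transfected with RasV12 or RacV12 plus neomycin plasmids, then grown 2-3 weeks in 400 μg/ml geneticin with compound at 1, 10, 17.5, 25 or 50 μM. Fuchsin-stained colonies of ≥50 cells were counted.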

Q: For `CCCc1c(OCCCCCOc2coc(CO)cc2=O)ccc(Cl)c1Cl` [EH22900, 5-[5-(3,4-Dichloro-2-propylphenyloxy)pentyloxy]-2-(hydroxymethyl)-4H-pyran-4-one], which “Cell architecture modification actin staining (R: ruffles; FC: focal complexes) NIH3T3” value (NIH3T3) is on record?
A: R-, FC+

Q: What about the “concentration at which specific inhibition of membrane ruffles and increase in the number of stress fibers was observed” value (NIH3T3) of the same compound?
A: 10 µM

Q: What about the “Cell architecture modification phase contrast” value (cell architecture) of the same compound?
A: +

Q: What about the “Small GTPases activities Rac” value (Rac) of the same compound?
A: −

Q: What about the “concentration at which inhibition of serum-induced migration was observed” value (MDA-MB-231 cells [1]) of the same compound?
A: 25 µM

Q: What about the Migration (MDA-MB-231 cells [1]) of the same compound?
A: inhibition

Q: What about the “concentration giving significant inhibition of invasive properties of MDA-MB-231 cells” value (MDA-MB-231 cells [2]) of the same compound?
A: 17.5 µM

Q: And the Invasion (MDA-MB-231 cells [2])?
A: Decrease

Q: And the IC50 (NIH3T3 mouse fibroblasts)?
A: 30 µM

Q: What about the IC50 (MCF-7 breast carcinoma) of the same compound?
A: 50 µM

Q: What about the IC50 [3] of the same compound?
A: 30 µM

Q: What about the IC50 (MCF10-A) of the same compound?
A: > 50 µM

Q: What about the IC50 (H460 lung carcinoma) of the same compound?
A: 15 µM

Q: What about the “Small GTPases activities Ras” value (Ras) of the same compound?
A: −

Q: What does the source list for `C/C=C/c1oc(CO)cc(=O)c1OCCCCCOc1ccc(Cl)c(Cl)c1CCC` [EH31101, (E)-3-[5-(3,4-Dichloro-2-propylphenyloxy)pentyloxy]-6-(hydroxymethyl)-2-(propen-1-yl)-4H-pyran-4-one]?
A: Cell architecture modification actin staining (R: ruffles; FC: focal complexes) NIH3T3 (NIH3T3): R-, FC+; concentration at which specific inhibition of membrane ruffles and increase in the number of stress fibers was observed (NIH3T3): 50 µM; Cell architecture modification phase contrast (cell architecture): +; Small GTPases activities Rac (Rac): −; concentration at which inhibition of serum-induced migration was observed (MDA-MB-231 cells [1]): 10 µM; Migration (MDA-MB-231 cells [1]): no effect; concentration giving an increase in invasive properties of MDA-MB-231 cells (MDA-MB-231 cells [2]): 10 µM; Invasion (MDA-MB-231 cells [2]): Increase; IC50 (NIH3T3 mouse fibroblasts): > 50 µM; IC50 (MCF-7 breast carcinoma): 25 µM; IC50 [3]: 25 µM; IC50 (MCF10-A): 35 µM; IC50 (H460 lung carcinoma): 25 µM; Small GTPases activities Ras (Ras): −
